Results as given in US20250288514A1, “SKIN-SOOTHING COMPOSITION” (Amorepacific Corporation, priority 2024, published 2025).

What was measured:
filaggrin protein = assay: Moisturizing factor evaluation: filaggrin protein expression in artificial skin treated with inflammation cocktail; format: cell-based; details: inflammation cocktail IFN-γ (20 ng/ml)+TNF-α (20 ng/ml), compositions at 50 ppm, FIG. 3
claudin-1 protein = assay: Skin cohesion evaluation: claudin-1 protein expression in artificial skin treated with inflammation cocktail; format: cell-based; details: inflammation cocktail IFN-γ (20 ng/ml)+TNF-α (20 ng/ml), compositions at 50 ppm, FIG. 2
PGE2 (Prostaglandin E2) = assay: Skin redness evaluation: amount of PGE2 in artificial skin treated with inflammatory factor; format: cell-based; details: TNF-α+IFN-γ (20 ng/ml), FIG. 4
Source text: PGE2 is a factor that induces vasodilation and causes skin redness, wherein the smaller amount of PGE2, the less vasodilation induction, thereby suppressing the skin redness, and the skin redness evaluation results are shown in FIG. 4.

[1] = Dilution of stock in medium (state of the composition); format: physicochemical; details: 50 ppm in medium, from stock in purified water or DMSO
Source text: Because PEA was suspended at the 50 ppm, this composition was not used for an experiment.

mast cell degranulation = details: stated as known; cited from earlier work
[2] = Cell toxicity of the composition; details: 50 ppm
Procedure: A composition was prepared by adding 1 g of (−)-epigallocatechin gallate 5 (EGCG) to 100 g of purified water or dimethyl sulfoxide (DMSO) to prepare a stock and diluting the stock to 50 ppm.

Row | Compound | expression level of filaggrin protein (filaggrin protein) | expression level of claudin-1 protein (claudin-1 protein) | also measured
1 | CCCCCCCCCCCCCCCC(=O)NCCO [Comparative Example 4, palmitoylethanolamide] | not recovered from the decrease of the protein expression | not recovered from the decrease in the protein expression of the claudin-1 protein | 
2 | Oc1cc(O)c2c(c1)O[C@H](c1ccc(O)c(O)c1)[C@H](O)C2 [Example 3, epicatechin] | recovered from the decrease of the protein expression | recovered from the decrease in the protein expression of the claudin-1 protein | amount of PGE2 (PGE2 (Prostaglandin E2)): the amount of PGE2 was suppressed
3 | CCCCCCCCCCCCCCCC(=O)NCCO [PEA, palmitoylethanolamide] |  |  | state on dilution in medium [1]: suspended; effect of suppressing the mast cell degranulation (mast cell degranulation): no effect of suppressing the mast cell degranulation
4 | (−)-epigallocatechin gallate [Comparative Example 7] | not recovered from the decrease of the protein expression | not recovered from the decrease in the protein expression of the claudin-1 protein | 
5 | (−)-epigallocatechin gallate [EGCG] |  |  | cell toxicity [2]: cell toxicity
